Where two headings read alike, the source gives them in different places.

Data set [1] addresses recombinant human GCase (rhGCase; Cerezyme®) (Homo sapiens (Human), UniProt P04062, R534H). The experiment in a line: In vitro enzyme inhibition assay (4-MU-β-D-Glc substrate), inhibition constants. Type of data set: biochemical. The procedure: The binding affinity (defined here by Ki binding constant) of GCase for novel compounds of the present invention were empirically determined using enzyme inhibition assays. In brief, the enzyme inhibition assays used monitored the ability of a test compound to bind and prevent the hydrolysis of a fluorogenic substrate in a concentration-dependent mariner. Specifically, the enzyme activity of recombinant human GCase (rhGCase; Cerezyme®, Genzyme Corp.) was measured using the 4-methylumbelliferyl-β-D-glucopyranoside (4-MU-β-D-Glc) fluorogenic substrate in the absence or in the presence of varying amounts of each test compound. […] The enzyme inhibition assays were performed at both pH 7.0 (endoplasmic reticulum pH) and at pH 5.2 (lysosomal pH) to gain insight into the binding affinity (i.e., potency) of compounds for GCase in the endoplasmic reticulum and lysososome.
Various concentrations of test compounds were prepared in buffer “M” consisting of 50 mM sodium phosphate buffer with 0.25% sodium taurocholate at pH 7.0 and pH 5.2. Enzyme (Cerezyme®, a recombinant form of the human enzyme β-glucocerebrosidase) was also diluted in the same buffer “M” at pH 7.0 and pH 5.2. […] Five microliters of diluted enzyme was added to 15 μl of the various inhibitor concentrations or buffer “M” alone and incubated at 37° C. for 1 hour with 50 μl of the substrate preparation to assess β-glucosidase activity at pH 7.0 and pH 5.2. […] Fluorescence was measured on a plate reader for 1 sec/well using 355 nm excitation and 460 nm emission.

The next data set is described as follows: Rat pharmacokinetics. The format is in vivo. The following applies: male, Sprague-Dawley, plasma; for Cmax: read-out: Cmax. Here is the method: Pharmacokinetic (PK) data was obtained in rats to assess the bioavailability of test compound. In particular, the following PK parameters were calculated: bioavailability as measured by area under the Concentration/Time curve (AUC), fraction of dose available (% F; further defined below), clearance (CL), volume of distribution (Vd), and half-life (t½). […] Three rats were used per dosing group. Blood was collected over a 24-hr period. The time points for blood collection after intravenous administration were: 0, 2.5, 5, 10, 15, 30, 45 min, 1, 2, 4, 8, 12, and 24 hrs; time points for blood collection after p.o. administrations were: 0, 5, 15, 30, 45 min, 1, 2, 3, 4, 8, 12, and 24 hrs. Plasma samples were analyzed for compound levels by LC-MS/MS at PPD. Raw data was analyzed by non-compartmental analysis in Win-nonLin to calculate VD, % F, CL, and t1/2.

[2] abbreviates: pH 5.2, Cheng-Prusoff from IC50, read-out: Ki (μM) pH 5.2.
Where [3] appears, read: pH 5.2, read-out: IC50 (μM) pH 5.2.
Setting [4] is: pH 5.2, repeated in Table 3A, read-out: Ki pH 5.2.
The mark [5] stands for this setting: pH 5.2, repeated in Table 3B, read-out: Ki pH 5.2.
Where [6] appears, read: pH 7.0, Cheng-Prusoff from IC50, read-out: Ki (μM) pH 7.0.
Setting [7] is: pH 7.0, read-out: IC50 (μM) pH 7.0.
Setting [8] is: IV, 3 mg/kg free base, AUC0-12 hr, read-out: AUClast (hr*ng/ml), AUC0-12 hr.
Setting [9] is: IV, 3 mg/kg free base, read-out: t1/2 (converted).
The mark [10] stands for this setting: PO, 10 mg/kg free base, read-out: % F.
The mark [11] stands for this setting: PO, 10 mg/kg free base, read-out: t1/2 (converted).
The mark [12] stands for this setting: PO, 30 mg/kg free base, AUC0-24 hr, read-out: AUClast (hr*ng/ml), AUC0-24 hr.
[13] abbreviates: PO, 30 mg/kg free base, read-out: % F.
Where [14] appears, read: PO, 30 mg/kg free base, read-out: t1/2 (converted).
The mark [15] stands for this setting: PO, 100 mg/kg free base, AUC0-24 hr, read-out: AUClast (hr*ng/ml), AUC0-24 hr.
Where [16] appears, read: PO, 100 mg/kg free base, read-out: % F.
Setting [17] is: PO, 100 mg/kg free base, read-out: t1/2 (converted).
[18] abbreviates: intravenous, oral, summary of Tables 4A-D, read-out: half-life.
Where [19] appears, read: po, summary of Tables 4A-D, read-out: oral bioavailability.

recombinant human GCase (rhGCase; Cerezyme®), sequence (P04062 40-536 R534H limits assumed): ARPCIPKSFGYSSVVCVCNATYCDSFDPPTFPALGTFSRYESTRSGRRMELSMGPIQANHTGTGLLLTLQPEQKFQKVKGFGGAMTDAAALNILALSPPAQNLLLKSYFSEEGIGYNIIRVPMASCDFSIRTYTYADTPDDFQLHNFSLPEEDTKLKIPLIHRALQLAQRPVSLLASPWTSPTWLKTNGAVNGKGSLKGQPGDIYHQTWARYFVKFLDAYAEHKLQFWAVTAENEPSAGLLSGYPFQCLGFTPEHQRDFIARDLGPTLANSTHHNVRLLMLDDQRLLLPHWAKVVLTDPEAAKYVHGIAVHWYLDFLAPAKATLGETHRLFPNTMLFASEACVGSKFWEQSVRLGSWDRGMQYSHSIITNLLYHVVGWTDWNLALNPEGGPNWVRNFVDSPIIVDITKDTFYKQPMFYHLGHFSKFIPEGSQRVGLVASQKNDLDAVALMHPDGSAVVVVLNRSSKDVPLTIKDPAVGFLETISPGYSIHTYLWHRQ

On to `CC[C@@H](F)[C@H]1CNC[C@@H](O)[C@@H]1O.Cl` [(3R,4R,5S)-5-((R)-1-fluoropropyl)-piperidine-3,4-diol hydrochloride], for which the Ki in data set [1] (setting [2]) was 0.121 ± 0.0026 µM; in data set [1] (setting [4]), 0.121 ± 0.0026 µM; in data set [1] (setting [5]) it was 0.121 ± 0.0026 µM; in data set [1] (setting [6]), 0.031 ± 0.0015 µM. In addition, the IC50 in data set [1] (setting [3]) came out at 0.291 ± 0.006 µM; in data set [1] (setting [7]) it was 0.06 ± 0.0029 µM.

For `O[C@@H]1[C@@H](Cc2ccccc2)CNC[C@H]1O` [(3R,4R,5S)-5-benzyl-piperidine-3,4-diol], the distribution volume (Vd) in the data set “Rat pharmacokinetics” (IV, 3 mg/kg free base) worked out at 12.6 ± 1.79 L/kg. In “Rat pharmacokinetics” (IV, 3 mg/kg free base), this compound gave a clearance of 85.8 mL/min/kg. Besides, the AUC(0-t) stood at 592 ± 60.9 ng·h/mL in “Rat pharmacokinetics” (setting [8]); 1200 ± 46.4 ng·h/mL in the data set “Rat pharmacokinetics” (PO, 10 mg/kg free base, AUC0-24 hr, read-out: AUClast (hr*ng/ml), AUC0-24 hr); 3690 ± 71.5 ng·h/mL in “Rat pharmacokinetics” (setting [12]); 13500 ± 2180 ng·h/mL in “Rat pharmacokinetics” (setting [15]). The Cmax in the data set “Rat pharmacokinetics” (IV, 3 mg/kg free base) turned out to be 969 ± 104 ng/mL; in the data set “Rat pharmacokinetics” (PO, 10 mg/kg free base), 641 ± 48.7 ng/mL; in “Rat pharmacokinetics” (PO, 30 mg/kg free base), 1700 ± 133 ng/mL; in the data set “Rat pharmacokinetics” (PO, 100 mg/kg free base), 7140 ± 1360 ng/mL. Besides, the half-life in “Rat pharmacokinetics” (setting [9]) was 1.7 ± 1.5 h; in the data set “Rat pharmacokinetics” (setting [11]) it was 3.86 ± 0.6 h; in “Rat pharmacokinetics” (setting [14]), 3.8 ± 0.19 h; in “Rat pharmacokinetics” (setting [17]) it was 2.9 ± 0.11 h; in the data set “Rat pharmacokinetics” (setting [18]), 1 to 4 h. The bioavailability in “Rat pharmacokinetics” (setting [10]) is 61.7 ± 2.4%; in the data set “Rat pharmacokinetics” (setting [13]), 62.3 ± 1.2%; in “Rat pharmacokinetics” (setting [16]), 68.3 ± 10.8%; in “Rat pharmacokinetics” (setting [19]), 50 to 100%. Further, the Ki was 0.273 ± 0.012 µM in data set [1] (setting [2]), 0.273 ± 0.012 µM in data set [1] (setting [4]), 0.273 ± 0.012 µM in data set [1] (setting [5]) and 0.067 ± 0.005 µM in data set [1] (setting [6]). Moreover, the IC50 in data set [1] (setting [3]) was determined as 0.659 ± 0.028 µM; in data set [1] (setting [7]), 0.127 ± 0.01 µM.

The compound `Cl.O[C@H]1[C@H](O)CNC[C@@H]1C(F)F` [Cmpd 6, (3R,4R,5S)-5-(Difluoromethyl)piperidine 3,4-diol Hydrochloride] displayed a Vd in “Rat pharmacokinetics” (IV, 3 mg/kg free base) of 2.61 L/kg. This compound had a clearance in the data set “Rat pharmacokinetics” (IV, 3 mg/kg free base) of 25.9 mL/min/kg. In addition, the AUC(0-t) in “Rat pharmacokinetics” (setting [8]) worked out at 2040 ng·h/mL; in the data set “Rat pharmacokinetics” (PO, 10 mg/kg free base, AUC0-12 hr, read-out: AUClast (hr*ng/ml), AUC0-12 hr) it was 6710 ng·h/mL; in “Rat pharmacokinetics” (setting [12]) it was 21700 ng·h/mL; in “Rat pharmacokinetics” (setting [15]), 79400 ng·h/mL. Besides, the Cmax amounted to 2320 ng/mL in the data set “Rat pharmacokinetics” (IV, 3 mg/kg free base); 3360 ng/mL in “Rat pharmacokinetics” (PO, 10 mg/kg free base); 10000 ng/mL in the data set “Rat pharmacokinetics” (PO, 30 mg/kg free base); 33200 ng/mL in “Rat pharmacokinetics” (PO, 100 mg/kg free base). Also, the half-life was 1.1 h in “Rat pharmacokinetics” (setting [9]); 2.58 h in “Rat pharmacokinetics” (setting [11]); 2.75 h in “Rat pharmacokinetics” (setting [14]); 2.41 h in “Rat pharmacokinetics” (setting [17]); 1 to 4 h in the data set “Rat pharmacokinetics” (setting [18]). The bioavailability in “Rat pharmacokinetics” (setting [10]) is 106%; in “Rat pharmacokinetics” (setting [13]), 101%; in the data set “Rat pharmacokinetics” (setting [16]), 121%; in the data set “Rat pharmacokinetics” (setting [19]), 50 to 100%.

The term Ki denotes a dissociation constant, usually derived from enzyme kinetics or from competition with a known ligand. As usually defined, the IC50 is the concentration that inhibits the measured activity by half. The term Vd denotes the apparent volume that relates the amount in the body to the concentration in plasma or blood. Low readings indicate confinement near the circulation, high ones extensive tissue distribution. In general, clearance refers to a measure of how efficiently the substance is removed, as volume per time. Usually Cmax stands for the maximum level reached in the sampled fluid or tissue.
